Source: patent publication US20260151345A1, “FAST-DISSOLVING DOSAGE FORMS AND USES THEREOF” (Astrocyte Pharmaceuticals, Inc., priority 2022, published 2026)
Values joined by “and” are separate entries in the source; they are usually repeats but may differ in a detail not shown here. Identical values can stand only once. Like-named read-outs stand apart in the source and are kept apart here.

Assays:
[1] = Pharmacokinetics / bioavailability after oral disintegrating tablet dose; type: in vivo, male Beagle dogs; conditions: for AUC(0-t) / AUC(0-inf) / Cmax / Tmax / half-life: po, 50.75 mg
Method: The purpose of this study was to evaluate the bioavailability of Compound A following administration of the ODT formulation. Animals were administered Compound A, as described in the following table.
(§1) Dosing occurred at 50.75 mg/dose. The ODT was placed on the dog's tongue and the mouth held shut for approximately 30 seconds to allow the material to dissolve. In each case, the tablet quickly formed a white paste that was adhered to the tongue and was not swallowed whole.
Whole blood samples were collected from all animals as noted in the following table for determination of test article exposure.
• Method: LC-MS/MS • Column: Restek Raptor ARC-18 2.7 μm (30×2.1 mm) • Mobile Phase A: 0.1% Formic Acid in Water • Mobile Phase B: 0.1% Formic Acid in Acetonitrile • Ionization: (±) ESI with Ion Spray • Analyte: Compound A • MRM: m/z 324.200/182.200 amu • Internal Standard: Labetalol • MRM: m/z 329.200/294.200 amu • Assay Range (LLOQ and ULOQ): 1-5000 ng/mL
Pharmacokinetic concentration-time data for Compound A was analyzed using non-compartmental methods (Phoenix® WinNonlin® Version 8.1) with nominal sampling times and dosages. The following parameters were calculated whenever possible and as data allowed: Volume of distribution, Clearance, tl/2, C0/Cmax, Tmax, % F. and AUC. Additional parameters may have been calculated as appropriate. Descriptive statistics were generated using Phoenix WinNonlin.

male Beagle dogs = assay: Tolerability (cageside observations) after ODT dose; type: in vivo; conditions: 50.75 mg/dose via ODT
Method: as §1
Cageside Observations, General signs of toxicity including fecal and urine quality, were completed approximately 1 hour post dose on dose days.

[2] = single ODT dose 50.75 mg/dose, male Beagle dogs

CSc1nc(N)c2ncn([C@H]3[C@H](O)[C@H](O)[C@]4(CO)C[C@H]34)c2n1 [Compound A]
Compound A Plasma Concentration, individual animals ([1]; 0.25 hr postdose, ODT 50.75 mg/dose, male Beagle dogs): 356 ng/mL and 309 ng/mL and 352 ng/mL and 114 ng/mL
Compound A Plasma Concentration, individual animals ([1]; 0.5 hr postdose, ODT 50.75 mg/dose, male Beagle dogs): 2300 ng/mL and 1840 ng/mL and 1690 ng/mL and 622 ng/mL
Compound A Plasma Concentration, individual animals ([1]; 1 hr postdose, ODT 50.75 mg/dose, male Beagle dogs): 2370 ng/mL and 2510 ng/mL and 1810 ng/mL
Compound A Plasma Concentration, individual animals ([1]; 2 hr postdose, ODT 50.75 mg/dose, male Beagle dogs): 1990 ng/mL and 2070 ng/mL and 1530 ng/mL
Compound A Plasma Concentration, individual animals ([1]; 4 hr postdose, ODT 50.75 mg/dose, male Beagle dogs): 1100 ng/mL and 1160 ng/mL and 798 ng/mL
Compound A Plasma Concentration, individual animals ([1]; 8 hr postdose, ODT 50.75 mg/dose, male Beagle dogs): 319 ng/mL and 413 ng/mL and 248 ng/mL
Compound A Plasma Concentration, individual animals ([1]; 24 hr postdose, ODT 50.75 mg/dose, male Beagle dogs): 132 ng/mL and 48.3 ng/mL and 119 ng/mL and 28.8 ng/mL
Percent F, Mean ([1]; N=4, single ODT dose, 4.66 mg/kg dose used for calculation, estimated value): 114%
concentration at 0.25 h ([1]; male, Beagle, dog, plasma, oral, 50.75 mg/dose, 0.25 hr postdose, N=4, ODT 50.75 mg/dose, male Beagle dogs, read-out: Compound A Plasma Concentration, Mean): 283 ng/mL
concentration at 0.5 h ([1]; male, Beagle, dog, plasma, oral, 50.75 mg/dose, 0.5 hr postdose, N=4, ODT 50.75 mg/dose, male Beagle dogs, read-out: Compound A Plasma Concentration, Mean): 1610 ng/mL
concentration at 1 h ([1]; male, Beagle, dog, plasma, oral, 50.75 mg/dose, 1 hr postdose, N=4, ODT 50.75 mg/dose, male Beagle dogs, read-out: Compound A Plasma Concentration, Mean): 2190 ng/mL
concentration at 1 h ([1]; male, Beagle, dog, plasma, oral, 50.75 mg/dose, 1 hr postdose, ODT 50.75 mg/dose, male Beagle dogs, read-out: Compound A Plasma Concentration, individual animals): 2080 ng/mL
concentration at 2 h ([1]; male, Beagle, dog, plasma, oral, 50.75 mg/dose, 2 hr postdose, N=4, ODT 50.75 mg/dose, male Beagle dogs, read-out: Compound A Plasma Concentration, Mean): 1810 ng/mL
concentration at 2 h ([1]; male, Beagle, dog, plasma, oral, 50.75 mg/dose, 2 hr postdose, ODT 50.75 mg/dose, male Beagle dogs, read-out: Compound A Plasma Concentration, individual animals): 1650 ng/mL
concentration at 4 h ([1]; male, Beagle, dog, plasma, oral, 50.75 mg/dose, 4 hr postdose, N=4, ODT 50.75 mg/dose, male Beagle dogs, read-out: Compound A Plasma Concentration, Mean): 1010 ng/mL
concentration at 4 h ([1]; male, Beagle, dog, plasma, oral, 50.75 mg/dose, 4 hr postdose, ODT 50.75 mg/dose, male Beagle dogs, read-out: Compound A Plasma Concentration, individual animals): 964 ng/mL
concentration at 8 h ([1]; male, Beagle, dog, plasma, oral, 50.75 mg/dose, 8 hr postdose, N=4, ODT 50.75 mg/dose, male Beagle dogs, read-out: Compound A Plasma Concentration, Mean): 354 ng/mL
concentration at 8 h ([1]; male, Beagle, dog, plasma, oral, 50.75 mg/dose, 8 hr postdose, ODT 50.75 mg/dose, male Beagle dogs, read-out: Compound A Plasma Concentration, individual animals): 434 ng/mL
concentration at 24 h ([1]; male, Beagle, dog, plasma, oral, 50.75 mg/dose, 24 hr postdose, N=4, ODT 50.75 mg/dose, male Beagle dogs, read-out: Compound A Plasma Concentration, Mean): 82 ng/mL
AUC(0-t) ([1]; male, Beagle, dog, plasma, N=4, single ODT dose 50.75 mg/dose, male Beagle dogs, read-out: AUC0-24, Mean): 12200 ng·h/mL
AUC(0-inf) ([1]; male, Beagle, dog, plasma, N=4, single ODT dose 50.75 mg/dose, male Beagle dogs, read-out: AUCinf, Mean): 13000 ng·h/mL
Cmax ([1]; male, Beagle, dog, plasma, N=4, single ODT dose 50.75 mg/dose, male Beagle dogs, read-out: Cmax, Mean): 2250 ng/mL
Tmax ([1]; male, Beagle, dog, plasma, N=4, single ODT dose 50.75 mg/dose, male Beagle dogs, read-out: Tmax, Mean): 52.8 min
half-life ([1]; male, Beagle, dog, plasma, N=4, single ODT dose 50.75 mg/dose, male Beagle dogs, read-out: t1/2, Mean (converted)): 331 min
AUC(0-t) ([1]; male, Beagle, dog, plasma, single ODT dose 50.75 mg/dose, male Beagle dogs, read-out: AUC0-24, individual animals): 9020 ng·h/mL
AUC(0-inf) ([1]; male, Beagle, dog, plasma, single ODT dose 50.75 mg/dose, male Beagle dogs, read-out: AUCinf, individual animals): 9200 ng·h/mL
Cmax ([1]; male, Beagle, dog, plasma, single ODT dose 50.75 mg/dose, male Beagle dogs, read-out: Cmax, individual animals): 1810 ng/mL
Tmax ([1]; male, Beagle, dog, plasma, single ODT dose 50.75 mg/dose, male Beagle dogs, read-out: Tmax, individual animals): 60 min
half-life ([1]; male, Beagle, dog, plasma, single ODT dose 50.75 mg/dose, male Beagle dogs, read-out: t1/2, individual animals (converted)): 265 min
AUC0-24, individual animals [1, 2]: 13300 ng·h/mL and 12400 ng·h/mL and 14300 ng·h/mL
AUCinf, individual animals [1, 2]: 14700 ng·h/mL and 12700 ng·h/mL and 15300 ng·h/mL
Cmax, individual animals [1, 2]: 2300 ng/mL and 2370 ng/mL and 2510 ng/mL
Tmax, individual animals [1, 2]: 30 min
t1/2, individual animals [1, 2]: 7.51 h and 4.33 h and 5.79 h
Percent F, individual animals ([1]; single ODT dose, 4.66 mg/kg dose used for calculation, estimated from nominal dose and estimated AUCinf, 4.66 mg/kg): 80.5% and 116% (2×) and 143%
Tolerability (male Beagle dogs): well tolerated
